Experimental data published in ChEMBL document CHEMBL4507303, “Data for DCP probe TP-004” (2021).

Experiments:
[1] = biological target: Serine/threonine-protein kinase Nek4 (Homo sapiens) (UniProt P51957); conditions: Compound concentration 1000.0 nM
[2] = biological target: Misshapen-like kinase 1 (Homo sapiens) (UniProt Q8N4C8); conditions: Compound concentration 1000.0 nM
[3] = biological target: Serine/threonine-protein kinase Nek10 (Homo sapiens) (UniProt Q6ZWH5); conditions: Compound concentration 1000.0 nM
[4] = biological target: 5'-AMP-activated protein kinase catalytic subunit alpha-2 (Homo sapiens) (UniProt P54646); conditions: Compound concentration 1000.0 nM
[5] = biological target: Receptor tyrosine-protein kinase erbB-2 (Homo sapiens) (UniProt P04626); conditions: Compound concentration 1000.0 nM
[6] = biological target: Fibroblast growth factor receptor 2 (Homo sapiens) (UniProt P21802); conditions: Compound concentration 1000.0 nM
[7] = biological target: Cyclin-dependent kinase 7 (Homo sapiens) (UniProt P50613); conditions: Compound concentration 1000.0 nM
[8] = biological target: cAMP-dependent protein kinase catalytic subunit PRKX (Homo sapiens) (UniProt P51817); conditions: Compound concentration 1000.0 nM
[9] = test system: Tyrosine-protein kinase ABL1 (Homo sapiens), P00519 [H396P]; conditions: Compound concentration 1000.0 nM
[10] = biological target: Ribosomal protein S6 kinase alpha-4 (Homo sapiens) (UniProt O75676); conditions: Compound concentration 1000.0 nM
[11] = biological target: RAC-gamma serine/threonine-protein kinase (Homo sapiens) (UniProt Q9Y243); conditions: Compound concentration 1000.0 nM
[12] = biological target: Myosin-IIIa (Homo sapiens) (UniProt Q8NEV4); conditions: Compound concentration 1000.0 nM
[13] = biological target: Death-associated protein kinase 2 (Homo sapiens) (UniProt Q9UIK4); conditions: Compound concentration 1000.0 nM
[14] = biological target: Serine/threonine-protein kinase SIK3 (Homo sapiens) (UniProt Q9Y2K2); conditions: Compound concentration 1000.0 nM
[15] = biological target: Casein kinase I isoform alpha (Homo sapiens) (UniProt P48729); conditions: Compound concentration 1000.0 nM
[16] = biological target: Serine/threonine-protein kinase pim-1 (Homo sapiens) (UniProt P11309); conditions: Compound concentration 1000.0 nM
[17] = biological target: Serine/threonine-protein kinase TAO1 (Homo sapiens) (UniProt Q7L7X3); conditions: Compound concentration 1000.0 nM
[18] = biological target: Tyrosine-protein kinase Lck (Homo sapiens) (UniProt P06239); conditions: Compound concentration 1000.0 nM
[19] = biological target: Myosin light chain kinase 2, skeletal/cardiac muscle (Homo sapiens) (UniProt Q9H1R3); conditions: Compound concentration 1000.0 nM
Rattus norvegicus = species: Rattus norvegicus; conditions: Compound concentration 10.0 uM
[20] = biological target: Ribosomal protein S6 kinase alpha-2 (Homo sapiens) (UniProt Q15349); conditions: Compound concentration 1000.0 nM
[21] = biological target: Serine/threonine-protein kinase DCLK3 (Homo sapiens) (UniProt Q9C098); conditions: Compound concentration 1000.0 nM
[22] = biological target: Mu-type opioid receptor (Homo sapiens) (UniProt P35372); conditions: Compound concentration 10.0 uM
[23] = biological target: Cyclin-dependent kinase 16 (Homo sapiens) (UniProt Q00536); conditions: Compound concentration 1000.0 nM
[24] = test system: Epidermal growth factor receptor (Homo sapiens), P00533 [G719C]; conditions: Compound concentration 1000.0 nM
[25] = biological target: Serine/threonine-protein kinase 10 (Homo sapiens) (UniProt O94804); conditions: Compound concentration 1000.0 nM
[26] = biological target: Serine/threonine-protein kinase 36 (Homo sapiens) (UniProt Q9NRP7); conditions: Compound concentration 1000.0 nM
[27] = biological target: Casein kinase I isoform gamma-2 (Homo sapiens) (UniProt P78368); conditions: Compound concentration 1000.0 nM
[28] = biological target: Serine/threonine-protein kinase SIK1 (Homo sapiens) (UniProt P57059); conditions: Compound concentration 1000.0 nM
[29] = biological target: Serine/threonine-protein kinase tousled-like 2 (Homo sapiens) (UniProt Q86UE8); conditions: Compound concentration 1000.0 nM
[30] = biological target: Protein-tyrosine kinase 2-beta (Homo sapiens) (UniProt Q14289); conditions: Compound concentration 1000.0 nM
[31] = biological target: Serine/threonine-protein kinase MRCK beta (Homo sapiens) (UniProt Q9Y5S2); conditions: Compound concentration 1000.0 nM
[32] = biological target: Phosphatidylinositol 5-phosphate 4-kinase type-2 gamma (Homo sapiens) (UniProt Q8TBX8); conditions: Compound concentration 1000.0 nM
[33] = test system: Mast/stem cell growth factor receptor Kit (Homo sapiens), P10721 [D816V]; conditions: Compound concentration 1000.0 nM
[34] = biological target: Platelet-derived growth factor receptor alpha (Homo sapiens) (UniProt P16234); conditions: Compound concentration 1000.0 nM
[35] = biological target: SRSF protein kinase 2 (Homo sapiens) (UniProt P78362); conditions: Compound concentration 1000.0 nM
[36] = biological target: Serine/threonine-protein kinase PLK1 (Homo sapiens) (UniProt P53350); conditions: Compound concentration 1000.0 nM
[37] = biological target: SRSF protein kinase 3 (Homo sapiens) (UniProt Q9UPE1); conditions: Compound concentration 1000.0 nM
[38] = biological target: Membrane-associated tyrosine- and threonine-specific cdc2-inhibitory kinase (Homo sapiens) (UniProt Q99640); conditions: Compound concentration 1000.0 nM
[39] = test system: Receptor-type tyrosine-protein kinase FLT3 (Homo sapiens), P36888 [R834Q]; conditions: Compound concentration 1000.0 nM
[40] = biological target: MAP kinase-activated protein kinase 2 (Homo sapiens) (UniProt P49137); conditions: Compound concentration 1000.0 nM
[41] = biological target: Non-receptor tyrosine-protein kinase TYK2 (Homo sapiens) (UniProt P29597); conditions: Compound concentration 1000.0 nM
[42] = test system: Epidermal growth factor receptor (Homo sapiens), P00533 [UNDEFINED MUTATION]; conditions: Compound concentration 1000.0 nM
[43] = biological target: Tyrosine-protein kinase FRK (Homo sapiens) (UniProt P42685); conditions: Compound concentration 1000.0 nM
[44] = biological target: Muscle, skeletal receptor tyrosine-protein kinase (Homo sapiens) (UniProt O15146); conditions: Compound concentration 1000.0 nM

Sequence of SRSF protein kinase 3 (Homo sapiens) (Q9UPE1 whole entry): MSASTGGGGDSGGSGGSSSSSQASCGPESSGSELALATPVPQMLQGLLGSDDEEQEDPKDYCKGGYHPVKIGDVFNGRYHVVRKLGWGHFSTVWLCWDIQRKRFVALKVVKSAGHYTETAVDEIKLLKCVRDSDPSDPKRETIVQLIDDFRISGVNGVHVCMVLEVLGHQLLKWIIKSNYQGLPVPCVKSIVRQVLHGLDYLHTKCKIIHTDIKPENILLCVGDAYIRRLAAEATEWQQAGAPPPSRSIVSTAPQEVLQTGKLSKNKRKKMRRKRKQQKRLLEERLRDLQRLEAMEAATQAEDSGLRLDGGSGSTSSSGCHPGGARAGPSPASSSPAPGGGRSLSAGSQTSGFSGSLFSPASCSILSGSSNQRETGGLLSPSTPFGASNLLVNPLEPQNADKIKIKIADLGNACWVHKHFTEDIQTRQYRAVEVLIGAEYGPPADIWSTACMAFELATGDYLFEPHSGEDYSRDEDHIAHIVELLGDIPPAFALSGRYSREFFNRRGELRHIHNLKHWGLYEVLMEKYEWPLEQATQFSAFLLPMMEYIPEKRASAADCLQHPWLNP
Sequence of Platelet-derived growth factor receptor alpha (Homo sapiens) (P16234 whole entry): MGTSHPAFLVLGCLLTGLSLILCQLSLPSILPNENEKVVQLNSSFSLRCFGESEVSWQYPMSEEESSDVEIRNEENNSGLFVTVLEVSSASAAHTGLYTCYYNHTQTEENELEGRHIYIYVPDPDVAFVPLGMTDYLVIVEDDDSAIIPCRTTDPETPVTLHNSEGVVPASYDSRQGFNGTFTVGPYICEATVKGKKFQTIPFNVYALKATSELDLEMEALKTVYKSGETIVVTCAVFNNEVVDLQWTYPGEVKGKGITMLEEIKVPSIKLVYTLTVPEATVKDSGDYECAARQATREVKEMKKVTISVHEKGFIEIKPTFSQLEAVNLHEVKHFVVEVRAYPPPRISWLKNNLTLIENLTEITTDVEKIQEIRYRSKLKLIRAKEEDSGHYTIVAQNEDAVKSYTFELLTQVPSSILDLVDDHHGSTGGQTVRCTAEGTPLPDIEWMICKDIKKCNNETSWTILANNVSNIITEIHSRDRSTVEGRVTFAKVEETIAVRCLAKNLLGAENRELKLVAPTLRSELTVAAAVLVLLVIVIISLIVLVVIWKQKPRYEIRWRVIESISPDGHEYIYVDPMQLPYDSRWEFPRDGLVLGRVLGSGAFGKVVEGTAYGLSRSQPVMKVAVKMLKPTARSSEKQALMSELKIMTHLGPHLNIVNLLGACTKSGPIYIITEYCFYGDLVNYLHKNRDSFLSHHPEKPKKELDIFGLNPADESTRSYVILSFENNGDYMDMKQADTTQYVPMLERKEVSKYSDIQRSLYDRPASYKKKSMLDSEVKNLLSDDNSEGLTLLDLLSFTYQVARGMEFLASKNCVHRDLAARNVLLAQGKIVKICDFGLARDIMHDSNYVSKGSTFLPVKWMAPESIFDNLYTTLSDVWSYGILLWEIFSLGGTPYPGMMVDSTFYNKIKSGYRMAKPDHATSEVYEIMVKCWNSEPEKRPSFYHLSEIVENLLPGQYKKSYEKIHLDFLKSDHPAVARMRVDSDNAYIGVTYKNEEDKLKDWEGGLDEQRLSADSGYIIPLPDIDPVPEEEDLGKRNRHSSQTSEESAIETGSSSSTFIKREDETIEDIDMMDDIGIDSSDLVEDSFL
Sequence of Ribosomal protein S6 kinase alpha-4 (Homo sapiens) (O75676 whole entry, looked up): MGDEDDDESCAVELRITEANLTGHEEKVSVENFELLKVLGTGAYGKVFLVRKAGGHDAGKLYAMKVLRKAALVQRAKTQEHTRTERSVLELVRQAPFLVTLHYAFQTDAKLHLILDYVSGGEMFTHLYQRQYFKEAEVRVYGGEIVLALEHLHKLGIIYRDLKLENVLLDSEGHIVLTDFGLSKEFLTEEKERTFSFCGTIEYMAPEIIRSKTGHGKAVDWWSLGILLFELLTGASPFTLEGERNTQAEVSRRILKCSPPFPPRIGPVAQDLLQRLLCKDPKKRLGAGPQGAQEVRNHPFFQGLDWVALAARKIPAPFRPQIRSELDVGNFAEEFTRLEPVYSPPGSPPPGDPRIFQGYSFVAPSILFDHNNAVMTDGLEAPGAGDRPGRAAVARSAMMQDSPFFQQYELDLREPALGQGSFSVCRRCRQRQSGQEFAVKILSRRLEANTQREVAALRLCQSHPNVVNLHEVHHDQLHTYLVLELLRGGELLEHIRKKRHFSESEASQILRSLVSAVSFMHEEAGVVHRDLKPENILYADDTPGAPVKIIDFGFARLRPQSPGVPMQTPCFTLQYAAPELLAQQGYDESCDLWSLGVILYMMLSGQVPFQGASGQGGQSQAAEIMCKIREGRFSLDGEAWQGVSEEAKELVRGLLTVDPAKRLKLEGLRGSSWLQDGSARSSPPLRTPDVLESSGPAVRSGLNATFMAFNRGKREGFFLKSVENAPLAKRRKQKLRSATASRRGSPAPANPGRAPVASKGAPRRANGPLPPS
Sequence of Serine/threonine-protein kinase 10 (Homo sapiens) (O94804 whole entry, looked up): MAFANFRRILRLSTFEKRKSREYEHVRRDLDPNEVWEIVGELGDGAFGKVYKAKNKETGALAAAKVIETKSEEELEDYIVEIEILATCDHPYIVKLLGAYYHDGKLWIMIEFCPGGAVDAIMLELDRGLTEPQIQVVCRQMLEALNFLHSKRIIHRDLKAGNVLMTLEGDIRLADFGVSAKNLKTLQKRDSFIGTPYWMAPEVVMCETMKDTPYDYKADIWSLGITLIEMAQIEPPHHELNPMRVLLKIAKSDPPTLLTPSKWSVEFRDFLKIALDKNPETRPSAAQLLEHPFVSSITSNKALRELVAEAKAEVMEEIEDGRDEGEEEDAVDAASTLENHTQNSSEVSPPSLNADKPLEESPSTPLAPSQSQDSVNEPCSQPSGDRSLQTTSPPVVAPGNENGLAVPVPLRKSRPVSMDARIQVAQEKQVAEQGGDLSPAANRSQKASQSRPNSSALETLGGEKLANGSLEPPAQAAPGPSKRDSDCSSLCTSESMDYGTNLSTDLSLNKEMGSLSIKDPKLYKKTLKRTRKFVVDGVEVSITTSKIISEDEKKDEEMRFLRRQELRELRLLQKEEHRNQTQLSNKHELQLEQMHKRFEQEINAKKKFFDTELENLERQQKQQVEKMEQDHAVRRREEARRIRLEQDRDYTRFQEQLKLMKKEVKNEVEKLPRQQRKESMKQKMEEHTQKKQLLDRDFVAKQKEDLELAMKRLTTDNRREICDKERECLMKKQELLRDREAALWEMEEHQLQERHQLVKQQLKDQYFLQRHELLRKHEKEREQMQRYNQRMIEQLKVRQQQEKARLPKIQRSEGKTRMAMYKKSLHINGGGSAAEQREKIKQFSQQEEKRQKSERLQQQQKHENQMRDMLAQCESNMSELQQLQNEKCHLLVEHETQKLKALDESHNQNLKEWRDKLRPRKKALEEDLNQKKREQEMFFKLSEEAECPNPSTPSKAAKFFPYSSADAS
Sequence of Serine/threonine-protein kinase pim-1 (Homo sapiens) (P11309 whole entry, looked up): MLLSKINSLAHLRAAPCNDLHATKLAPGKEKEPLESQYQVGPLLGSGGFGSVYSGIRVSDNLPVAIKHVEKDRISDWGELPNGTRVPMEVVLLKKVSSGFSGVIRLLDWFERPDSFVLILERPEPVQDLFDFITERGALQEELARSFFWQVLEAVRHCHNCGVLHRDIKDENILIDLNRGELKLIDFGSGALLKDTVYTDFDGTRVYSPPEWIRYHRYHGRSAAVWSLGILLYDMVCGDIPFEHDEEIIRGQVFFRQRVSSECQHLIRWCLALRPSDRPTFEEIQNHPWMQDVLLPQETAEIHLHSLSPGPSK
Sequence of Serine/threonine-protein kinase SIK1 (Homo sapiens) (P57059 whole entry): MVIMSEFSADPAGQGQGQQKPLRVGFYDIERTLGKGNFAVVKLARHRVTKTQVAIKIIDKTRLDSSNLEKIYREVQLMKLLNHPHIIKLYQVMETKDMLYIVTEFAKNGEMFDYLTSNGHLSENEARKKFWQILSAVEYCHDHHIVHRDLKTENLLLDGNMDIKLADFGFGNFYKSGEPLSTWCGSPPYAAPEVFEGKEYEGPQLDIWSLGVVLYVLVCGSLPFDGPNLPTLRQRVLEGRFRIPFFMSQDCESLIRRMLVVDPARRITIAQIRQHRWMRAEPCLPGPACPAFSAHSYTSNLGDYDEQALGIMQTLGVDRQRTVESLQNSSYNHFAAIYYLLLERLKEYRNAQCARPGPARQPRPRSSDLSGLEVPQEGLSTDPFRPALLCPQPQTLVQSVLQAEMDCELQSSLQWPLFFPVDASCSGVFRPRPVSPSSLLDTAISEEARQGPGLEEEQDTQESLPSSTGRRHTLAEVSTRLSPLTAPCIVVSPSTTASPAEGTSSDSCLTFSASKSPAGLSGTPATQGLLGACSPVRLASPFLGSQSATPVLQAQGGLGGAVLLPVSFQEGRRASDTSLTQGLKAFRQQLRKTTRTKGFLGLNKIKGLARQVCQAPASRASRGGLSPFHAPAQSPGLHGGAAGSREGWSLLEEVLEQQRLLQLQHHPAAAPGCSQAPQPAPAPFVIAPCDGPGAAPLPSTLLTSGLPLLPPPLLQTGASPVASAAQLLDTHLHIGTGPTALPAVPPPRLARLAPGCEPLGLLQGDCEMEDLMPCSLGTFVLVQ
Sequence of Cyclin-dependent kinase 7 (Homo sapiens) (P50613 whole entry): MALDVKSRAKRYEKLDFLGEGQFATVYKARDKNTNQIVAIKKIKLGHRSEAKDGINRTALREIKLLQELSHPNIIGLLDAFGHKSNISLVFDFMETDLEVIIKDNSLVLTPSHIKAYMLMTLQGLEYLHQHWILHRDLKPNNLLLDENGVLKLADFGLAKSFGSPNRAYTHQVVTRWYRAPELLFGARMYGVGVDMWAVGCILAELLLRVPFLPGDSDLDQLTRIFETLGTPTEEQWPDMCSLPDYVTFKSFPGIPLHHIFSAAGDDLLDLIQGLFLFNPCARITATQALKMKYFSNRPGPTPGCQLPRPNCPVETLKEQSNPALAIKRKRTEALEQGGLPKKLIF

Cc1nc(N2CC[C@@H](O)C2)ncc1-c1cc(C(F)(F)F)cc2[nH]ncc12 [TP-004]
inactive: residual activity [1] 81% | residual activity [2] 61% | residual activity [3] 96% | residual activity [4] 100% | residual activity [5] 87% | residual activity [6] 100% | residual activity [7] 68% | residual activity [8] 97% | residual activity [9] 77% | residual activity [10] 84% | residual activity [11] 77% | residual activity [12] 100% | residual activity [13] 100% | residual activity [14] 53% | residual activity [15] 96% | residual activity [16] 100% | residual activity [17] 91% | residual activity [18] 100% | residual activity [19] 100% | inhibition (Rattus norvegicus) 1.57% | residual activity [20] 100% | residual activity [21] 96% | inhibition [22] 7.79% | residual activity [23] 75% | residual activity [24] 100% | residual activity [25] 100% | residual activity [26] 100% | residual activity [27] 100% | residual activity [28] 90% | residual activity [29] 100% | residual activity [30] 100% | residual activity [31] 100% | residual activity [32] 100% | residual activity [33] 100% | residual activity [34] 76% | residual activity [35] 100% | residual activity [36] 64% | residual activity [37] 84% | residual activity [38] 100% | residual activity [39] 73% | residual activity [40] 95% | residual activity [41] 70% | residual activity [42] 100% | residual activity [43] 98% | residual activity [44] 85%
